Where two headings read alike, the source gives them in different places.
Tests used:
[1] = SIN-1-induced ROS scavenging assay; details: 20 µM; SIN-1 as ROS generator; DCFH-DA probe
Source text: The scavenging activities of the BABT derivatives 1–14 against ROS and peroxynitrite (ONOO^−) were investigated because the antioxidant activities of the compounds may modulate melanogenesis. To measure the ROS scavenging activities of BABT derivatives, 2′,7′-dichlorodihydrofluorescein diacetate (DCFH-DA) and 3-morpholinosydnonimine (SIN-1) were used as a fluorogenic probe and ROS generator, respectively. The reaction of DCFH-DA with esterase produces 2′,7′-dichlorodihydrofluorescein (DCFH), which generates the fluorescent compound 2′,7′-dichlorofluorescein (DCF) by reacting with ROS produced by SIN-1. Therefore, ROS scavenging activities were determined by measuring the DCF fluorescence remaining after the BABT derivatives scavenged the ROS generated by SIN-1. […] BABT derivatives and Trolox, the positive control, were used at a concentration of 20 µM.
The ROS scavenging activities of the BABT derivatives were measured using an oxidant-sensitive fluorescent probe. Derivatives or Trolox (10 µL; final concentration: 20 µM) were seeded in a black 96-well plate. Then, 10 µL of SIN-1 (10 µM) was added to induce radical species generation and mixed with 180 µL of sodium phosphate buffer (pH 7.4) containing 12.5 µM DCF-DA and 600 units of esterase. Fluorescence intensity was measured at emission and excitation wavelengths of 535 and 485 nm, respectively, using a fluorescence microplate reader (Berthold Technologies GmbH & Co., Wien, Austria). Trolox was used as the positive control.

[2] = tested on: mushroom tyrosinase; assay: Mushroom tyrosinase inhibition assay; format: biochemical; details: for IC50: mean ± SEM of three experiments
Procedure: As mushroom tyrosinase is commercially available and relatively cheap, it is used as a tool for the identification of novel tyrosinase inhibitors. Here, we examined the tyrosinase inhibitory activities of the 14 BABT derivatives against mushroom tyrosinase in the presence of L-tyrosine or L-dopa as substrates.
Mushroom tyrosinase inhibitory activities of BABT derivatives were determined as described previously, with minor modifications. L-Tyrosine and L-dopa were used as substrates to evaluate the enzyme activity. […] Assay mixtures were incubated at 37 °C for 30 min, and dopachrome amounts synthesized were determined by measuring the optical density of each well at 475 nm using a microplate reader (VersaMax; Molecular Devices, Sunnyvale, CA, USA).

[3] = Peroxynitrite scavenging assay; details: 20 µM; SIN-1 as generator; DHR123 probe
Procedure: The effects of the BABT derivatives on peroxynitrite scavenging activities were also examined using SIN-1 as an RNS generator and dihydrorhodamine (DHR123) as an ROS indicator. DHR123 was converted to fluorescent rhodamine 123 by peroxynitrite generated by SIN-1. Therefore, the peroxynitrite scavenging activities of 1–14 were assessed by measuring the fluorescence of rhodamine 123. BABT derivatives and penicillamine, the positive control, were used at a concentration of 20 µM.
The peroxynitrite scavenging activities of the BABT derivatives were assessed using the method developed by Kooy, involving the monitoring of highly fluorescent rhodamine 123, which was rapidly produced from non-fluorescent DHR123 in the presence of peroxynitrite. Rhodamine buffer (pH 7.4) was composed of 50 mM sodium phosphate dibasic, 50 mM sodium phosphate monobasic, 90 mM sodium chloride, 5 mM potassium chloride, and 100 µM DTPA. A 10 µL aliquot of BABT derivatives or PCA (final concentration: 20 µM) was seeded in a black 96-well plate. Then, 10 µL of SIN-1 (10 µM) was added to induce radical species generation and mixed with 180 µL of rhodamine buffer. Fluorescence intensity was measured at emission and excitation wavelengths of 535 and 485 nm, respectively, using a fluorescence microplate reader (Berthold Technologies GmbH & Co.). PCA was used as the positive control.

[4] = DPPH radical scavenging assay; details: test samples 500 µM; DPPH 0.18 mM; 30 min in the dark
Procedure: DPPH is a light-sensitive compound containing free radicals. The DPPH assay is one of the most common methods for evaluating the antioxidant activity of a compound. The effects of BABT derivatives on DPPH radical scavenging activities were evaluated using L-ascorbic acid as a positive reference control. DPPH radical scavenging activities were measured after leaving the mixed samples (test samples of 500 µM plus DPPH solution of 0.18 mM) in the dark for 30 min. To determine the radical scavenging activities, the absorbance of the mixed samples was measured at 517 nm.
According to previously described methods, with minor modifications, the DPPH radical scavenging activities of BABT derivatives 1–14 were measured. A DPPH (0.2 mM) and methanol solution (180 µL) was mixed with 20 µL of a DMSO solution containing 5 mM BABT derivative, or with 20 µL of an aqueous solution of 5 mM L-ascorbic acid, in each well of a 96-well plate and kept at ambient temperature in the dark for 30 min. The optical density of each well was measured at 517 nm using a microplate reader (VersaMax; Molecular Devices). L-Ascorbic acid was used as a positive reference control, and the DPPH radical scavenging abilities of BABT derivatives were compared with those of L-ascorbic acid. All experiments were performed independently, thrice.

[5] = tested on: B16F10 cells; assay: Measurement of extracellular and intracellular melanin levels; format: cell-based, murine; details: 20 µM; α-MSH plus IBMX stimulated B16F10 cells; 72 h
Procedure: To investigate the effects of derivative 8 on extracellular and intracellular melanin levels in B16F10 cells, the cells were treated with various concentrations (5, 10, and 20 µM) of derivative 8 for 1 h, in addition to co-treatment with α-MSH (0.5 µM) and 3-isobutyl-1-methylxanthine (IBMX; 200 µM) to enhance melanin biosynthesis in B16F10 cells. After 72 h of incubation, the effects of 8 on extracellular and intracellular melanin levels were determined by measuring the melanin absorbance in the culture media and cell lysates, respectively, at 405 nm using a microplate reader.
The effect of 8 on melanin production was measured using a standard melanin content assay, with minor modifications. Briefly, B16F10 cells were seeded at a density of 1 × 10^5 cells per well and allowed to adhere to the well bottoms for 24 h under the conditions used for cell cultures. […] After incubation for 72 h at 37 °C in a 5% CO2 atmosphere, melanin levels were determined. To measure the extracellular melanin levels, the absorbance of each well of the culture medium was measured at 405 nm. […] Cultured cells were washed twice with PBS, and the pellets obtained were dissolved using 1 N NaOH solution (200 µL, 10% DMSO) at 60 °C for 1 h. Cell lysates were transferred to the wells of a 96-well plate, and the optical density of melanin dissolved in each well was measured at 405 nm in aqueous DMSO solution using a microplate reader (VersaMax; Molecular Devices).

[6] = substrate L-dopa, read-out: IC50 (µM) L-Dopa
[7] = substrate L-tyrosine, read-out: IC50 (µM) L-Tyrosine

Row | Structure (SMILES) | IC50 [2, 6] [µM] | IC50 [2, 7] [µM] | ROS scavenging activity (in words) [1] | also measured
1 | COc1cc(/C=C2\SC(NCc3ccccc3)=NC2=O)ccc1O [Compound 5, (Z)-2-(benzylamino)-5-(4-hydroxy-3-methoxybenzylidene)thiazol-4(5H)-one] | > 300 | 148.3 ± 1.12 | moderate ROS scavenging activities | 
2 | COc1ccc(/C=C2\SC(NCc3ccccc3)=NC2=O)cc1OC [Compound 11, (Z)-2-(benzylamino)-5-(3,4-dimethoxybenzylidene)thiazol-4(5H)-one] | > 300 | > 300 |  | mushroom tyrosinase inhibitory activity (in words) ([2]; substrate L-tyrosine): little-to-no mushroom tyrosinase inhibitory activity
3 | COc1cc(/C=C2\SC(NCc3ccccc3)=NC2=O)cc(OC)c1O [Compound 12, (Z)-2-(benzylamino)-5-(4-hydroxy-3,5-dimethoxybenzylidene)thiazol-4(5H)-one] | > 300 | 166 ± 8.04 |  | DPPH radical scavenging activity, % inhibition [4]: 62%
4 | CC(C)(C)c1cc(/C=C2\SC(NCc3ccccc3)=NC2=O)cc(C(C)(C)C)c1O [Compound 13, (Z)-2-(benzylamino)-5-(3,5-di-tert-butyl-4-hydroxybenzylidene)thiazol-4(5H)-one] | > 300 | 137 ± 10.7 |  | 
5 | O=C1O[C@H]([C@@H](O)CO)C(O)=C1O [L-Ascorbic acid, L-ascorbic acid, reference compound] |  |  |  | DPPH radical scavenging activity, % inhibition [4]: 97%
6 | O=c1cc(CO)occ1O [kojic acid, Kojic acid, reference compound] |  |  |  | extracellular melanin levels compared to untreated control [5]: 1.5 fold; intracellular melanin levels compared to untreated control [5]: 1.9 fold
7 | CC(C)(S)[C@@H](N)C(=O)O [penicillamine, reference compound] |  |  |  | peroxynitrite scavenging activity (in words) [3]: significantly reduced the peroxynitrite levels increased by SIN-1 treatment

Second part, led by results:

Row | IC50 [2, 6] [µM] | IC50 [2, 7] [µM] | Structure (SMILES) | ROS scavenging activity (in words) [1] | also measured
8 | 65.1 ± 8.29 | 27.5 ± 2.93 | O=C1N=C(NCc2ccccc2)S/C1=C\c1ccc(O)cc1 [Compound 1, (Z)-2-(benzylamino)-5-(4-hydroxybenzylidene)thiazol-4(5H)-one] | strongly reduced the ROS levels enhanced by SIN-1 | fold higher IC50 value with L-dopa than with L-tyrosine ([2]; L-dopa versus L-tyrosine as substrate): 2 fold; peroxynitrite scavenging activity (in words) [3]: strong ROS and peroxynitrite scavenging activities
9 | 239.4 ± 2.38 | 126 ± 10 | COc1ccc(/C=C2\SC(NCc3ccccc3)=NC2=O)cc1 [Compound 2, (Z)-2-(benzylamino)-5-(4-methoxybenzylidene)thiazol-4(5H)-one] | strongly reduced the ROS levels enhanced by SIN-1 | fold decrease of tyrosinase inhibitory activity versus derivative 1 ([2]; substrate L-dopa): 3.7 fold; fold lower tyrosinase inhibitory activity than derivative 1 ([2]; substrate L-tyrosine): 4.6 fold
10 | > 300 | > 300 | O=C1N=C(NCc2ccccc2)S/C1=C\c1ccc(F)cc1F [Compound 3, (Z)-2-(benzylamino)-5-(2,4-difluorobenzylidene)thiazol-4(5H)-one] | moderate ROS scavenging activities | 
11 | > 300 | 289 ± 14.7 | O=C1N=C(NCc2ccccc2)S/C1=C\c1ccc(F)c(F)c1 [Compound 4, (Z)-2-(benzylamino)-5-(3,4-difluorobenzylidene)thiazol-4(5H)-one] | moderate ROS scavenging activities | 
12 | 248 ± 11.5 | 199 ± 8.57 | CCOc1cc(/C=C2\SC(NCc3ccccc3)=NC2=O)ccc1O [Compound 6, (Z)-2-(benzylamino)-5-(3-ethoxy-4-hydroxybenzylidene)thiazol-4(5H)-one] |  | 
13 | 214 ± 6.29 | 293 ± 13.1 | COc1ccc(/C=C2\SC(NCc3ccccc3)=NC2=O)c(OC)c1 [Compound 10, (Z)-2-(benzylamino)-5-(2,4-dimethoxybenzylidene)thiazol-4(5H)-one] |  | mushroom tyrosinase inhibitory activity (in words) ([2]; substrate L-tyrosine): little-to-no mushroom tyrosinase inhibitory activity
14 | 231 ± 7.43 | 192 ± 9.04 | COc1cc(/C=C2\SC(NCc3ccccc3)=NC2=O)cc(OC)c1OC [Compound 14, (Z)-2-(benzylamino)-5-(3,4,5-trimethoxybenzylidene)thiazol-4(5H)-one] |  | mushroom tyrosinase inhibitory activity (in words) ([2]; substrate L-tyrosine): little-to-no mushroom tyrosinase inhibitory activity

Source: publication PMC9865752, “Design and Synthesis of (Z)-2-(Benzylamino)-5-benzylidenethiazol-4(5H)-one Derivatives as Tyrosinase Inhibitors and Their Anti-Melanogenic and Antioxidant Effects” (Molecules, 2023)
